Measured values taken from patent US20240325554A1, “METHODS FOR TREATING CANCER” (Bicycle Tx Limited, priority 2021, published 2024).
“Also recorded” adds a separate entry of the source. Numbered stars: 1 amine (or outer) side, 2 acyl side, 3 side chain; on linkers, the order of the positions; unused ones are H or OH. Bridge positions count the residues as written; N and C are the ends. Square brackets hold non-standard residues; d marks the D form. I, II: the chains in the order shown. X2 = O=C(CCOCCOCCOCCN(CCOCCOCCOCCn1cc(CCC(=O)[*:2])nn1)CCOCCOCCOCCn1cc(CCC(=O)[*:3])nn1)[*:1]; TATA = O=C(CC[*:1])N1CN(C(=O)CC[*:2])CN(C(=O)CC[*:3])C1; X1 = CC(C)[C@H](N[*:1])C(=O)C[C@@H](CC(N)=O)C(=O)[*:2]; X3 = O=C(CC[*:1])N1CN(C(=O)CC[*:3])CN(C(=O)C[*:2])C1; d1Nal = N[C@H](Cc1cccc2ccccc12)C(=O)O; Hyp = O=C(O)[C@@H]1C[C@@H](O)CN1; hArg = N=C(N)NCCCC[C@H](N)C(=O)O; tBuAla = CC(C)(C)C[C@H](N)C(=O)O; Nle = CCCC[C@H](N)C(=O)O

Key:
MC38 tumor tissue [1] = assay: IHC analysis for CD8+ cells in MC38 tumor tissue, study with BCY12491; format: in vivo, huCD137-C57B/6J mice; settings: Q3D for three doses, Day 6, vs vehicle or non-binder
Description: (§1) For the transcriptional and immunohistochemical (IHC) analyses, 6-8 week old female huCD137-C57B/6J mice (Biocytogen) mice were implanted subcutaneously with 1×10^6 MC38 cells. Mice were randomized into treatment groups when average tumor volumes reached around 240 mm^3 and were treated intravenously with vehicle (25 mM histidine, 10% sucrose, pH7), 15 mg/kg BCY12491, 15 mg/kg BCY13626 (non-binding control) or intraperitoneally with 2 mg/kg anti-CD137 antibody urelumab. Treatments were given Q3D for three doses, tumor growth was monitored by caliper measurements and tumor tissues were harvested 1 hour after the last dose on Day 6. Part of the tumor tissue was used for RNA isolation for transcriptional analysis and a part of the tumor tissue was used for formalin-fixed paraffin embedded (FFPE) sample preparation for IHC analysis. RNA was isolated from tumor tissues using RNAeasy kit (Qiagen) and transcriptional analysis was performed using nCounter Mouse PanCancer IO 360 panel (Nanostring) from 100 ng RNA/tumor. Data were analyzed using the nSolver Analysis Software with advanced analysis probe set ns_mm_io_360_v1.0 (Nanostring). CD8+ tumor infiltrating cells were stained in FFPE tissue sections using anti-mouse CD8 antibody (Abcam, #ab217344) and Ventana Discovery OmniMap anti Rabbit-HRP Kit (Ventana #760 4310).

MC38 tumor tissue [2] = assay: transcriptional (Nanostring) analysis of MC38 tumors, profiling study with BCY12491; format: in vivo, huCD137-C57B/6J mice; settings: Q3D for three doses, Day 6, vs vehicle, 15 mg/kg i.v. peptides, 2 mg/kg i.p. antibody
Description: as §1

MC38 tumor [3] = assay: MC38 tumor model in mice (BCY13272); format: in vivo
MC38 tumor tissue [4] = assay: transcriptional (Nanostring) profiling of MC38 tumors, study with BT7455; format: in vivo, huCD137-C57B/6J mice
Description: For the transcriptional profiling analyses of the effects of BT7455 in the immune tumor microenvironment, 6-8 week old female huCD137-C57B/6J mice (Biocytogen) mice were implanted subcutaneously with 1×10+E6 MC38 cells. Mice were randomized into treatment groups when average tumor volumes reached around 350 mm^3 to receive vehicle, BT7455, αCD137 antibody (urelumab analogue) or αPD-1 antibody. BT7455 was dosed intravenously at 8 mg/kg (in 25 mM histidine HCl, 10% sucrose, pH7; Vehicle) at 0 h and 24 h and urelumab analogue and αPD-1 antibody were dosed intraperitoneally at 2 mg/kg (urelumab analogue) or 10 mg/kg (αPD-1 antibody) in PBS at 0 h. Tumors from vehicle, BT7455, urelumab analogue and αPD-1 antibody-treated mice were harvested at 24 h, 48 h and 144 h after treatment initiation. RNA was isolated from tumor tissues using RNAeasy kit (Qiagen) and transcriptional analysis was performed using nCounter Mouse PanCancer IO 360 panel (Nanostring) from 100 ng RNA/tumor. Data were analyzed using the nSolver Analysis Software with advanced analysis probe set ns_mm_io_360 v1.0 (Nanostring).

MC38 tumor [5] = assay: efficacy study BCY12491 and Pembrolizumab combination, MC38 tumor growth; format: in vivo, huCD137/huPD-1-C57B/6J mice
Description: For tumor growth analysis, 6-8 week old female huCD137/huPD-1-C57B/6J mice (Biocytogen) mice were implanted subcutaneously with 1×10^6 MC38 cells. Mice were randomized into treatment groups when average tumor volumes reached around 92 mm^3 and were treated intravenously with vehicle (25 mM histidine, 10% sucrose, pH7), 5 mg/kg BCY12491 (0, 24 h) or intraperitoneally with 3 mg/kg anti-PD-1 antibody Pembrolizumab or a combination of BCY12491 and Pembrolizumab. Combination treatments were given with three different dosing schedules: BCY12491 and Pembrolizumab treatment initiating at the same time on day 0, BCY12491 treatment initiating on […] and Pembrolizumab treatment initiating on day 5, or Pembrolizumab treatment initiating of day 0 and BCY12491 treatment initiating on day 5. Treatments were given weekly for four doses and tumor growth was monitored by caliper measurements.

[6] = tested on: MC38 #13 cells (MC38 cells engineered to overexpress Nectin-4); assay: efficacy study BT7480 with anti-PD-1 and anti-Ctla-4, MC38 #13 tumor growth and survival; format: in vivo, C57BL/6J-huCD137 mice; settings: i.p. BIW for 2 weeks, 1 mg/kg BT7480, 5 mg/kg antibodies, by day 33
Description: For tumor growth analysis, 6-8 week old female C57BL/6J-huCD137− mice (Biocytogen) were implanted subcutaneously with 1×10+e6 MC38 #13 cells (MC38 cells engineered to overexpress Nectin-4). Mice were randomized into treatment groups when average tumor volumes reached around 100 mm^3 and were treated intraperitoneally with vehicle (25 mM histidine, 10% sucrose, pH7), 1 mg/kg BT7480, 5 mg/kg anti-PD-1 (RMP 1-14), 5 mg/kg anti-Ctla-4 (9H10) or BT7480/anti-PD-1 and BT7480/anti-Ctla-4 combinations. Treatments were given twice weekly (BIW) for 2 weeks, and tumor growth was monitored by caliper measurements until day 33 after treatment initiation. Animals with >2000 mm^3 tumors were sacrificed as they had reached the Humane Endpoint.

[7] = tested on: MC38 #13 (MC38 cells engineered to express Nectin-4) tumor tissue; assay: transcriptional (Nanostring) analysis of MC38 #13 tumors, study with BT7480; format: in vivo, huCD137-C57B/6J mice; settings: 5 mg/kg i.v. 0 h, 24 h
Description: For the transcriptional and immunohistochemical (IHC) analyses, 6-8 week old female huCD137-C57B/6J mice (Biocytogen) mice were implanted subcutaneously with 1×10^6 MC38 #13 (MC38 cells engineered to express Nectin-4) cells. Mice were randomized into treatment groups when average tumor volumes reached around 255 mm^3 to receive vehicle, BT7480 (BCY00011863), non-binder BCY control BCY00012797 (BCY12797) or αCD137 antibody (urelumab analogue). BT7480 and its non-binding control were dosed intravenously at 5 mg/kg (in 25 mM histidine HCl, 10% sucrose, pH7; Vehicle) at 0 h and 24 h and urelumab analogue was dosed intraperitoneally at 2 mg/kg in PBS BIW (0 h, 72 h) dose and schedule. Tumors from BT7480-treated mice were harvested at 24 h (after the 0 h dose), 48 h (24 h after the last of 0 h and 24 h dose), 96 h (72 h after the last of 0 h and 24 h dose) and 144 h (120 h after the last of 0 h and 24 h dose). Tumors from αCD137-treated mice were harvested at 144 h after treatment initiation. Tumors from vehicle treated mice were harvested 24 h after the 0 h dose and at 144 h (120 h after the last of 0 h and 24 h dose). RNA was isolated from tumor tissues using RNAeasy kit (Qiagen) and transcriptional analysis was performed using nCounter Mouse PanCancer IO 360 panel (Nanostring) from 100 ng RNA/tumor. Data were analyzed using the nSolver Analysis Software with advanced analysis probe set ns_mm_io_360_v1.0 (Nanostring).

CD137 [8] = molecular target: T1, CD137 (Homo sapiens, UniProt Q07011); assay: CD137 activation; format: cell-based
T1 sequence (Q07011 24-255): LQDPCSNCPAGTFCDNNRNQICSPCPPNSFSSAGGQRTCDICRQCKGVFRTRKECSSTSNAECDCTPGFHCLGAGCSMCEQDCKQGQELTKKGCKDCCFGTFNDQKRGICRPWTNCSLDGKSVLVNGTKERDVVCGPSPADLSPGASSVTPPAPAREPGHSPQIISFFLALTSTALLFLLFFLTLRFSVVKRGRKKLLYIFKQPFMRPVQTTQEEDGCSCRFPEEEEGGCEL

CD137 [9] = molecular target: T1, CD137; assay: IL-2 and IFN-γ cytokine secretion; format: cell-based

anti-CD137 antibody: anti-CD137 antibody urelumab
infiltration of CD8+ cells in tumors (IHC) (MC38 tumor tissue [1]): Some increase of CD8+ cell infiltration | T cell score in tumor tissue (MC38 tumor tissue [2]): increased significantly | cytotoxic cell score in tumor tissue (MC38 tumor tissue [2]): increased significantly

I: A[hArg]DC[Hyp]L[X1]PLCLEP[d1Nal]WTC-NH2 / II: Ac-C[tBuAla]PE[dK]PYCFADPY[Nle]CA-NH2 / III: Ac-C[tBuAla]PE[dK]PYCFADPY[Nle]CA-NH2 (linker I:4-I:10-I:17, II:1-II:8-II:15 via TATA; linker I:N-II:5-III:5 via X2; linker III:1-III:8-III:15 via X3) [BT7455]
antitumor effect (MC38 tumor [3]): significant antitumor effect | mRNAs for immune checkpoints (Ctla4, Pdcd1, Cd274, Lag3, Havcr2, Pdcd1lg2, Tigit) (MC38 tumor tissue [4]; 8 mg/kg i.v. 0 h, 24 h): increase in several immune checkpoint mRNAs; also recorded: significant increase | mRNA for T cell chemotactic chemokines/cytokines such as Ccl1, Ccl17 and Ccl24 (MC38 tumor tissue [4]; 8 mg/kg i.v., 24-48 hour timepoint): significant early (24-48 hour timepoint) increase | cytotoxic cell score in tumor tissue (MC38 tumor tissue [4]; 8 mg/kg i.v., vs vehicle or anti-PD-1 or anti-CD137 treated mice): significant increase | modulation of gene sets (signature scores) (MC38 tumor tissue [4]; 48 h after treatment initiation, 8 mg/kg BT7455, 10 mg/kg anti-PD-1, 2 mg/kg urelumab analogue): significant early (48 hours) modulation of several gene sets

Pembrolizumab: anti-PD-1 antibody Pembrolizumab
anti-tumor activity compared to vehicle control (MC38 tumor [5]; 5 mg/kg BCY12491 QW (0, 24 h), 3 mg/kg Pembrolizumab QW, combination both from day 0, D18, p<0.0001): significantly affected the tumor growth; also recorded: significant anti-tumor activity | complete responses (MC38 tumor [5]; monotherapy treatment cohorts, 5 mg/kg BCY12491 (0, 24 h) or 3 mg/kg Pembrolizumab weekly): 3/10

CCCC[C@@H]1NC(=O)[C@H](Cc2ccc(O)cc2)NC(=O)[C@@H]2CCCN2C(=O)[C@H](CC(=O)O)NC(=O)[C@H](C)NC(=O)[C@H](Cc2ccccc2)NC(=O)[C@@H]2CSCCC(=O)N3CN(CN(C3)C(=O)CCSC[C@@H](C(=O)N[C@@H](C)C(N)=O)NC1=O)C(=O)CCSC[C@H](NC(C)=O)C(=O)N[C@@H](CC(C)(C)C)C(=O)N1CCC[C@H]1C(=O)N[C@@H](CCC(=O)O)C(=O)N[C@H](CCCCNC(=O)CCc1cn(CCOCCOCCOCCN(CCOCCOCCOCCC(=O)N[C@H]3CSCCC(=O)N4CN5CN(C4)C(=O)CCSC[C@H](NC(=O)[C@@H](CC(=O)O)NC(=O)[C@H](Cc4cccc6ccccc46)NC(=O)[C@@H]4CCCN4C3=O)C(=O)N[C@@H](CCSC)C(=O)N[C@@H](CCCCNC(=N)N)C(=O)N[C@@H](CC(=O)O)C(=O)N[C@@H](Cc3c[nH]c4ccccc34)C(=O)N[C@@H](CO)C(=O)N[C@@H]([C@@H](C)O)C(=O)N3CCC[C@H]3C(=O)N3C[C@H](O)C[C@H]3C(=O)N[C@@H](Cc3c[nH]c4ccccc34)C(=O)N[C@H](C(N)=O)CSCCC5=O)CCOCCOCCOCCn3cc(CCC(=O)NCCCC[C@H]4NC(=O)[C@H](CCC(=O)O)NC(=O)[C@@H]5CCCN5C(=O)[C@H](CC(C)(C)C)NC(=O)[C@@H](NC(C)=O)CSCCC(=O)N5CN6CN(C5)C(=O)CCSC[C@H](NC(=O)[C@H](Cc5ccc(O)cc5)NC(=O)[C@@H]5CCCN5C4=O)C(=O)N[C@@H](Cc4ccccc4)C(=O)N[C@@H](C)C(=O)N[C@@H](CC(=O)O)C(=O)N4CCC[C@H]4C(=O)N[C@@H](Cc4ccc(O)cc4)C(=O)N[C@@H](CCCC)C(=O)N[C@H](C(=O)N[C@@H](C)C(N)=O)CSCCC6=O)nn3)nn1)C(=O)N1CCC[C@H]1C(=O)N[C@@H](Cc1ccc(O)cc1)C(=O)N2 [BT7480]
rate of complete responses (CRs) [6]: 0/8 | mRNA for T cell chemotactic chemokines/cytokines such as Ccl1, Ccl17 and Ccl24 [7]: significant early (24 hour timepoint) increase | mRNAs for immune checkpoints (Ctla4, Pdcd1, Cd274, Lag3, Havcr2, Pdcd1lg2, Tigit) ([7]; 5 mg/kg): increase in several immune checkpoint mRNAs; also recorded: trend to increase or significant increase | cytotoxic cell score in tumor tissue ([7]; 144 h vs vehicle at 144 h): significantly increased | Macrophage Cell Score in tumor tissue ([7]; by 48 h vs 24 h vehicle readout): significant increase | CD137 activation (CD137 [8]): strong CD137 activation | IL-2 and IFN-γ cytokine secretion (CD137 [9]): robust IL-2 and IFN-γ cytokine secretion
